Where two headings read alike, the source gives them in different places.
Key:
H3122 cells = assay: CCK-8 cell proliferation detection, H3122 cells; format: cell-based; settings: Homo sapiens
Excerpt: (§1) WST-8 (chemical name: 2-(2-methoxy-4-nitrophenyl)-3-(4-nitrophenyl)-5-(2,4-disulfo benzene)-2H-tetrazolium monosodium), which is reduced to a highly water-soluble yellow formazan product (Formazan dye) by the dehydrogenase in cells under the action of the electron carrier dimethyl 1-methoxy-5-methylphenazinium sulfate (1-Methoxy PMS). The amount of the produced formazan is proportional to the number of living cells. Therefore, the survival rate of cells can be calculated indirectly by measuring the absorbance at 450 nm. The half inhibition rate of the compound on the proliferation of H3122, SET2, HEL cells can be determined by the CCK-8 method.
(§2) RPIM medium containing 10% FBS was used to culture cells (100 μL per well), and 3500 cells were inoculated into a 96-well plate, and placed in a 37° C., 5% CO2 incubator for 24 h, until 50%-70% of the cell confluence was achieved. Drugs with different concentration gradients were added respectively, and incubated for another 72 hrs. […] And finally the absorption value of each well was measured at 450 nm.
(§3) NOTE: HEL, SET-2, H3122 cells were purchased from ATCC (American type culture collection), Z′-LYTETM kinase assay platform was purchased from Invitrogen, HTRF KinEASETM-TK was purchased from Cisbio, and Cell Counting Kit-8 was purchased from Beyotime.

ALK = ALK (Homo sapiens, UniProt Q9UM73); assay: ALK kinase IC50 test (HTRF); format: biochemical
Sequence of ALK (Q9UM73 19-1620, species assumed): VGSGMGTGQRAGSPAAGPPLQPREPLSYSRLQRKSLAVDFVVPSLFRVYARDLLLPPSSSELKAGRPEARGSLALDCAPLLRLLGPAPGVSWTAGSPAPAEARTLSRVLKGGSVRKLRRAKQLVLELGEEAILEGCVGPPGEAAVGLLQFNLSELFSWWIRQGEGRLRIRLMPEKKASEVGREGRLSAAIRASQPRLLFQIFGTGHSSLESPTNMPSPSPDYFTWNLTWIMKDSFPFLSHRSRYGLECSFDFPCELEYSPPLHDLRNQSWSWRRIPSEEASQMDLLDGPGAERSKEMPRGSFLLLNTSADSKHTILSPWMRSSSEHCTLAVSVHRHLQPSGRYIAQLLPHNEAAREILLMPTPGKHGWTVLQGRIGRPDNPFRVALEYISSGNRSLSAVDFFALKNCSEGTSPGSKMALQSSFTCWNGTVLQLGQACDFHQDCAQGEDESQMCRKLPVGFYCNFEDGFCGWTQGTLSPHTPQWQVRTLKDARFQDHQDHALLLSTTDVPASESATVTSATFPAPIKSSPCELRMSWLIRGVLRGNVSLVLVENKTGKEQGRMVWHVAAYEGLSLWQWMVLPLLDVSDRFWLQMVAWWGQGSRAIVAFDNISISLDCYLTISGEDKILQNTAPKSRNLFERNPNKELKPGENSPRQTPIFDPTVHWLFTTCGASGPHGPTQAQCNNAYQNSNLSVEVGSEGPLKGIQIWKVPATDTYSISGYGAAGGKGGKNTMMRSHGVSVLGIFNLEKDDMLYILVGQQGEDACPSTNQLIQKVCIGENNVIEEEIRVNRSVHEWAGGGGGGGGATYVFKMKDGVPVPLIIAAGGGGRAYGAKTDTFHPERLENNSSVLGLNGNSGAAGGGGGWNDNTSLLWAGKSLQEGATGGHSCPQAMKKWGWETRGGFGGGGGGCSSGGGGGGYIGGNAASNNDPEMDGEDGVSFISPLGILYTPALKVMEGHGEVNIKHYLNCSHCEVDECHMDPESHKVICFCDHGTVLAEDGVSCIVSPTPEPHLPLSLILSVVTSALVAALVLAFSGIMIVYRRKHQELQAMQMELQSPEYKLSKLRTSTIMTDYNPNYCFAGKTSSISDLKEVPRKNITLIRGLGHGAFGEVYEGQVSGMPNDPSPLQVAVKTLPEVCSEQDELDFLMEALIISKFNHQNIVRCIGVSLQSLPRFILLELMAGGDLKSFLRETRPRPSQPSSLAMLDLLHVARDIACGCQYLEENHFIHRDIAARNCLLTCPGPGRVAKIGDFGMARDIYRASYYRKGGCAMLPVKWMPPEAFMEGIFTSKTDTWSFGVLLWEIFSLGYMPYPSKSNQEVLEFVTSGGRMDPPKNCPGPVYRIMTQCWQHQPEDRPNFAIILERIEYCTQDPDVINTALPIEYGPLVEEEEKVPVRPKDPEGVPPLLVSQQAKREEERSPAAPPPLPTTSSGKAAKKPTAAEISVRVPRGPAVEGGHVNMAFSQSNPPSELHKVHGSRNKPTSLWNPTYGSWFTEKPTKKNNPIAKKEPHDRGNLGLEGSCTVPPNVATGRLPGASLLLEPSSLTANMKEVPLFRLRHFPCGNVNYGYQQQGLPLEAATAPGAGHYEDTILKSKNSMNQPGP
Excerpt: According to HTRF method, the peptide substrate was labeled with a biotin, which can specifically bind to XL665-labeled streptavidin. When the kinase adds a phosphate group to the polypeptide substrate in the first step, its Eu-labeled specific phosphorylation antibody can recognize and bind to it. In this way, in the second step of detection, a complex of XL665-labeled streptavidin, phosphorylated peptide substrate and Eu-labeled phosphorylation antibody can be formed. Since the distance between XL665 and Eu is short, FRET can be formed. On the other hand, Eu has a relatively long fluorescence half-life and can be applied to time-resolved fluorescence detection.
10 μL of reaction system, 4 μL test compound, 2 μL kinase, 2 μL biotin-labeled substrate and 2 μL ATP, was added into a 384-well plate, shaken for 30 s, and incubated at room temperature for 1 hour. 5 μL of Eu-labeled phosphorylation site-specific antibody and 5 μL of XL665-labeled streptavidin were added. The reaction system was shaken for 30 s, and incubated at room temperature for 1 hour. A microplate reader was used to detect the fluorescence signal. The inhibition rates of the compounds under 8 concentration gradients were determined, and the IC50 value of each compound was calculated by fitting curve with Origin 8.0. […] Each experiment was performed in triplicate.
as §3

HEL (JAK2 V617F) cells = assay: CCK-8 cell proliferation detection, HEL cells; format: cell-based; settings: Homo sapiens, Table 2, CCK-8, 72 hrs
Excerpt: as §1, §2, §3

SET 2 (JAK2 V617F) cells = assay: CCK-8 cell proliferation detection, SET2 cells; format: cell-based; settings: Homo sapiens, Table 2, CCK-8, 72 hrs
Excerpt: as §1, §2, §3

JAK2 = JAK2 (Homo sapiens, UniProt O60674); assay: JAK2 kinase activity test at molecular level (Z'-LYTE FRET); format: biochemical
Sequence of JAK2 (O60674 whole entry): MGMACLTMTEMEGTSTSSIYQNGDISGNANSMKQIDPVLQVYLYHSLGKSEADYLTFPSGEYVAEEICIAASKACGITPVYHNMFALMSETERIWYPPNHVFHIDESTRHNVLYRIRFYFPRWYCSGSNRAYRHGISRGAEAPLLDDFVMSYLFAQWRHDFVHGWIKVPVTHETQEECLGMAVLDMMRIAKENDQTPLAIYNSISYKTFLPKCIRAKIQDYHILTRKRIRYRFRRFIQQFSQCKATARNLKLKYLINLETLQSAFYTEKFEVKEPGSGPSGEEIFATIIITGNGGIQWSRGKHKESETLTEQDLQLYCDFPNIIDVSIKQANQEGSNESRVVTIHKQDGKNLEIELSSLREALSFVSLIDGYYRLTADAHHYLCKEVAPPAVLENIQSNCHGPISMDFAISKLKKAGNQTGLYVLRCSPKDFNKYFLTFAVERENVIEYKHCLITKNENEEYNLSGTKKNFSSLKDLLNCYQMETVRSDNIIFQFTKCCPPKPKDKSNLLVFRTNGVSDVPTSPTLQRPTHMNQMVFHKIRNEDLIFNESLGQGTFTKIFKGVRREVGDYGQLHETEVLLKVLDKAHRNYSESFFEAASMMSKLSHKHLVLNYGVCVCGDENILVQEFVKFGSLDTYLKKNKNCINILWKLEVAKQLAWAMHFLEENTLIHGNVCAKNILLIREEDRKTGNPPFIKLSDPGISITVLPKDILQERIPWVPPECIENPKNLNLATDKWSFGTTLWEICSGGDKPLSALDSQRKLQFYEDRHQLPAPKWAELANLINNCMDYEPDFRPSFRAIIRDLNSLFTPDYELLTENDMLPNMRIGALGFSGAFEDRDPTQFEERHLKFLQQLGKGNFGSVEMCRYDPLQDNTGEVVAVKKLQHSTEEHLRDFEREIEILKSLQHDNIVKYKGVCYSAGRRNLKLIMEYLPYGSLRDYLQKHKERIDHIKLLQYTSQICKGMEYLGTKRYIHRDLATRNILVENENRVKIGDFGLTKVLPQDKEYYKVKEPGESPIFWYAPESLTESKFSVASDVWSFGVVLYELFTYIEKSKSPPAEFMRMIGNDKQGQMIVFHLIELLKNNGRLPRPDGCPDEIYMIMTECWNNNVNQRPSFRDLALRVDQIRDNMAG
Method: JAK2 can catalyze the transfer of a phosphate group of adenosine triphosphate (ATP) to a polypeptide substrate, and the polypeptide substrate is labeled with two fluorescent groups, coumarin and fluorescein. […] Therefore, the inhibition rates of different compounds can be calculated by measuring the ratio of enzyme-catalyzed substrate phosphorylation percentages.
10 μL reaction system, 2.5 μL test compound, 5 μL kinase/peptide substrate mixture and 2.5 μL ATP solution were added into a 384-well plate, shaken for 30 s, and incubated at room temperature for 1 hour. 5 μL of proteolytic enzyme and 15 μL of the reaction system were added and shaken for 30 s and incubated at room temperature for 1 h. 5 μL of stop reagent was added, and the reaction system with a total volume of 20 μL was shaken for 30 seconds. A microplate reader was used to detect the fluorescence signal. […] The inhibition rates of the compound at 7 concentration gradients were determined, and the IC50 value for each compound was calculated by fitting curve with Origin 8.0.
as §3

[1] = NCI-H3122, Table 2, CCK-8, 72 hrs
[2] = NCI-H3122, 72 h, Table 2, CCK-8, 72 hrs
[3] = Table 1, read-out: JAK2 kinase activity IC50

Row | IC50 (H3122 cells; [1]) [µM] | IC50 (ALK; Table 2) [µM] | IC50 (JAK2; Table 2, read-out: JAK2 IC50) [µM] | IC50 (H3122 cells; [2]) [µM] | IC50 (H3122 cells; NCI-H3122, Table 4, configurations of MXY-193) [µM] | IC50 (ALK; Table 4, configurations of MXY-193) [µM] | IC50 (JAK2; [3]) [µM] | SMILES | IC50 (HEL (JAK2 V617F) cells) [µM] | IC50 (SET 2 (JAK2 V617F) cells; SET-2) [µM] | IC50 (HEL (JAK2 V617F) cells; 72 h) [µM] | IC50 (SET 2 (JAK2 V617F) cells; SET-2, 72 h) [µM]
1 | 50.6 ± 8.01 | 5.5 | 0.925 ± 0.102 | – | – | – | – | CC(Oc1cc(-c2c[nH]c3ccccc23)cnc1N)c1cc(F)ccc1Cl (stereo not drawn) [MXY-137] | 1.67 | 12.5 | – | –
2 | > 100 | > 10 | 1.1 ± 0.081 | – | – | – | – | CC(Oc1cc(Nc2ccccn2)cnc1N)c1cc(F)ccc1Cl (stereo not drawn) [MXY-175] | 2.23 | 11 | – | –
3 | 62.5 ± 4.78 | 2.34 | 0.145 ± 0.01 | – | – | – | – | CC(Oc1cc(-c2cnn3cccnc23)cnc1N)c1cc(F)ccc1Cl (stereo not drawn) [MXY-181] | 49 | > 50 | – | –
4 | > 100 | > 10 | 2.68 ± 0.05 | – | – | – | – | Cc1cc(Nc2cnc(N)c(OC(C)c3cc(F)ccc3Cl)c2)nn1C (stereo not drawn) [MXY-191] | 23.1 | > 50 | – | –
5 | > 10 | 0.511 | 0.442 ± 0.003 | – | – | – | 0.442 ± 0.003 | CC(Oc1cc(-c2cnn(C3CCNCC3)c2)cnc1N)c1c(Cl)cccc1Cl (stereo not drawn) [WWQ-133, 4-{3-[1-(2,6-dichlorophenyl)ethoxy]-2-aminopyridine}pyrazol-1-piperidine] | 15 | 0.879 | – | –
6 | 3.537 ± 0.034 | 3.56 | 0.1 ± 0.002 | – | – | – | 0.1 ± 0.002 | CCC(Oc1cc(-c2cnn(C3CCNCC3)c2)cnc1N)c1c(Cl)ccc(F)c1Cl (stereo not drawn) [WWQ-1093-13, 4-{3-[1-(2,6-dichloro-3-fluorophenyl)propoxy]-2-aminopyridine}pyrazol-1-piperidine] | 37.3 | 7.86 | – | –
7 | – | – | – | 0.648 ± 0.044 | – | – | – | CC(Oc1cc(-c2cnn(C3CCNCC3)c2)cnc1N)c1c(Cl)ccc(F)c1Cl (stereo not drawn) [WWQ-1093-65, 4-{3-[1-(2,6-dichloro-3-fluorophenyl)ethoxy]-2-aminopyridine}pyrazole-1-piperidine] | – | – | 11.7 | 1.49
8 | > 100 | > 10 | > 10 | – | – | – | – | CC(Oc1cc(-c2cnoc2)cnc1N)c1cc(F)ccc1Cl (stereo not drawn) [XFL-137] | > 50 | > 10 | – | –

Further lines, the compound ahead of its results:

Row | SMILES | IC50 (H3122 cells; [1]) [µM] | IC50 (ALK; Table 2) [µM] | IC50 (JAK2; Table 2, read-out: JAK2 IC50) [µM] | IC50 (H3122 cells; [2]) [µM] | IC50 (H3122 cells; NCI-H3122, Table 4, configurations of MXY-193) [µM] | IC50 (ALK; Table 4, configurations of MXY-193) [µM] | IC50 (JAK2; [3]) [µM] | IC50 (HEL (JAK2 V617F) cells) [µM] | IC50 (SET 2 (JAK2 V617F) cells; SET-2) [µM] | IC50 (HEL (JAK2 V617F) cells; 72 h) [µM] | IC50 (SET 2 (JAK2 V617F) cells; SET-2, 72 h) [µM]
9 | CC(Oc1cc(-c2cc3ccccc3[nH]2)cnc1N)c1cc(F)ccc1Cl (stereo not drawn) [MXY-141] | > 100 | > 10 | – | – | – | – | – | 12.2 | 13.2 | – | –
10 | CC(Oc1cc(Nc2ccccc2)cnc1N)c1cc(F)ccc1Cl (stereo not drawn) [MXY-171] | 17.57 ± 0.161 | > 10 | 3.35 ± 0.063 | – | – | – | – | 2.11 | 2.14 | – | –
11 | CC(Oc1cc(-c2cnn(C3CCOCC3)c2)cnc1N)c1cc(F)ccc1Cl (stereo not drawn) [MXY-193] | – | > 10 | – | 78.8 ± 2.27 | 78.8 ± 2.27 | > 10 | – | – | – | – | –
12 | N#CC[C@H](C1CCCC1)n1cc(-c2ncnc3[nH]ccc23)cn1 [Ruxolitinib, reference compound] | 27.2 ± 3.39 | – | – | – | – | – | – | – | – | – | –
13 | CC(Oc1cc(-c2cnn(C3CCNCC3)c2)cnc1N)c1cc(F)ccc1Cl (stereo not drawn) [WWQ-131, 4-{3-[1-(2-chloro-5-fluorophenyl)ethoxy]-2-aminopyridine}pyrazol-1-piperidine] | – | 0.089 | – | 1.591 ± 0.014 | – | – | 0.0067 ± 0.001 | – | – | 9.78 | 1.33
14 | Cc1n[nH]c(C)c1-c1cnc(N)c(OC(C)c2cc(F)ccc2Cl)c1 (stereo not drawn) [XFL-107] | 1.45 ± 0.118 | 3.37 | 0.844 ± 0.1 | – | – | – | – | 9.14 | 3.35 | – | –
15 | CC(Oc1cc(-c2cnn(C)c2)cnc1N)c1cc(F)ccc1Cl (stereo not drawn) [XFL-111] | 3.52 ± 0.605 | 0.201 | 0.024 ± 0.002 | – | – | – | – | 9.05 | 7.56 | – | –
16 | CC(Oc1cc(-c2ccn[nH]2)cnc1N)c1cc(F)ccc1Cl (stereo not drawn) [XFL-141] | 78.6 ± 3 | – | 0.3021 ± 0.003 | – | – | – | – | 5.41 | 2.48 | – | –
17 | Cc1n[nH]cc1-c1cnc(N)c(OC(C)c2cc(F)ccc2Cl)c1 (stereo not drawn) [XFL-147] | 2.1 ± 0.344 | 0.438 | 0.0408 ± 0.0006 | – | – | – | – | 6.15 | 4.05 | – | –
